Experimental data: patent publication US20090105171A1, “Methods for Regenerating and Repairing Damaged Tissues Using Adrenomedullin” (priority 2005, published 2009)

How the values were obtained:
[1] = tested on: peripheral blood mononuclear cells; experiment: Dynamics of bone marrow cells after AM administration: peripheral blood mononuclear cells and Sca-1-positive cells; type: in vivo, C57BL/6 mice
Description: First, to investigate whether AM has an effect on the dynamics of bone marrow cells, AM or physiological saline was administered randomly to model animals. As the model animals, 48 ten-week old female C57BL/6 mice were used. The transgenic mice (C57BL/6 background) which ubiquitously express green fluorescence protein (GFP) were kindly offered by Professor Masaru Okabe (Osaka University, Japan) (Okabe M, Ikawa M, Kominami K, Nakanishi T, Nishimune Y. ‘Green mice’ as a source of ubiquitous green cells. FEBS Lett 1997; 407: 313-319).
AM (1 μg, 2 μg, or 5 μg in 100 μl physiological saline) was randomly administrated to the C57BL/6 mice (each, n=8) by intraperitoneal injection every day for five days. The control mice were similarly administered with 100 μl physiological saline every day for five days (n=8).
Furthermore, AM or physiological saline was administered to other mice (each, n=8) with a subcutaneous osmotic mini-pump (Alzet, Palo Alto, Calif.) at a delivery rate of 0.05 μg/kg/min for five days. Blood samples were collected on day 5, and mononuclear cells were isolated using Histopaque-1083 (Sigma) by a method known to those skilled in the art (Asahara T, Takahashi T, Masuda H, Kalka C, Chen D, Iwaguro H, Inai Y, Silver M, Isner J M. VEGF contributes to postnatal neovascularization by mobilizing bone marrow-derived endothelial progenitor cells. EMBO J 1999; 18: 3964-3972). The mononuclear cells were counted manually and analyzed with respect to the expression of Sca1-FITC (Sca-1-positive cells: BD Pharmingen, San Diego, Calif.). The immunofluorescence-labeled cells were analyzed by a quantitative flow cytometry using the FACSCalibur Flow Cytometer (BD Biosciences, Mountain View, Calif.). An antibody with the same isotype (BD Pharmingen) was used as a control.

[2] = tested on: bone marrow-derived cells in ischemic cardiac muscle; experiment: Dynamic analysis of bone marrow-derived cells in a rat model of myocardial infarction; type: in vivo, GFP chimeric rats; conditions: acute myocardial infarction, AM 0.05 μg/kg/min subcutaneously for seven days vs control group
Description: Acute myocardial infarction was produced in GFP chimeric rats (rats expressing GFP in the bone marrow cells) by thoracotomy and then ligation of the anterior descending coronary artery (Fujii T. et al., Am J Physiol Heart Circ Physiol. 288(3): H1444-50, 2005).
After local ischemia is created in the heart by ligation, 0.05 μg/kg/min of AM (the AM group) or 0.9% physiological saline (the control group) was subcutaneously administered for seven days via an osmotic pressure pump.
After acute myocardial infarction was produced, the distributions of bone marrow-derived cells (confirmed by GFP expression), vascular endothelial cells (confirmed by vWF, an endothelial cell marker), and cardiac muscle cells (confirmed by desmin, a cardiac muscle cell marker) in the myocardial infarct area were confirmed. Further, the total sum of the GFP-expressing cell number, vWF-expressing cell number, and desmin-expressing cell number was examined to confirm the states of regeneration of blood vessel and cardiac muscle in the AM group and control group.

[3] = tested on: elastase-induced pulmonary emphysema; experiment: Morphological and functional analyses of elastase-treated mice administered with AM; type: in vivo, C57BL/6 mice; conditions: day 28
Description: The remaining 42 mice were used to examine whether AM improves lung structure and lung function in elastase-induced pulmonary emphysema. The mice were intratracheally injected with swine pancreatic elastase (200 units/kg) or physiological saline at random, and assigned to continuous infusion of either AM or physiological saline. Based on this protocol, the following three groups were prepared: the sham treated mice administrated with physiological saline (the sham treated group, n=14), elastase-treated mice administered with physiological saline (the physiological saline group, n=14), and elastase-treated mice administrated with AM (the AM group, n=14). Each of the above-mentioned Examples was carried out according to the guidelines of Animal Management Ethics Committee of the National Cardiovascular Center (Osaka, Japan).
In fact, in the present invention, findings about lung functions (increase in lung volume and static lung compliance) and morphological findings (increase in the average alveolar diameter) confirmed that emphysematous changes were induced in the lungs by intratracheal injection of elastase, and these findings are consistent with the results from previous studies (Hayes J A, Korthy A, Snider G L. The pathology of elastase-induced panacinar emphysema in hamsters. J Pathol 1975; 117: 1-14; Kuraki T, Ishibashi M, Takayama M, Shiraishi M, Yoshida M. A novel oral neutrophil elastase inhibitor (ONO-6818) inhibits human neutrophil elastase-induced emphysema in rats. Am J Respir Crit Care Med 2002; 166: 496-500). 28 days after the injection of elastase or physiological saline, the mice were anesthetized and their static lung compliance was measured using a computer-controlled small animal ventilator (FlexiVent; Scireq, Montreal, PQ, Canada) (n=7). Lungs were excised and then fixed for 24 hours, while the transpulmonary pressure was maintained at 25 cm H2O (n=7). The lung volume was measured by Scherle's method (Scherle W. A simple method for volumetry of organs in quantitative stereology. Mikroskopie 1970; 26: 57-60). The mean linear intercept, a morphometric parameter of pulmonary emphysema, was calculated for 20 randomly selected regions with a light microscope using a method known to those skilled in the art (Thurlbeck W M. Internal surface area and other measurements in emphysema. Thorax 1967; 22: 483-496). Morphological examination was conducted in a blind manner by three observers.
Further, paraffin sections were obtained from the lungs (n=7), and the tissue sections were stained for vWF to examine whether AM induced angiogenesis in the elastase-administered lungs. Three observers counted the number of vWF-positive blood vessels per mm^2 in a blind test manner.

[4] = tested on: bone marrow-derived cells in the elastase-administered lungs; experiment: Homing and differentiation of bone marrow cells in elastase-treated GFP-positive bone marrow chimeric mice; type: in vivo, C57BL/6 mice; conditions: AM group vs physiological saline group, day 28 after elastase injection
Text: C57BL/6GFP-positive bone marrow chimeric mice were established for evaluating the dynamics of bone marrow cells.
The above-mentioned bone marrow chimeric mice were produced by a method known to those skilled in the art (Sata M, Saiura A, Kunisato A, Tojo A, Okada S, Tokuhisa T, Hirai H, Makuuchi M, Hirata Y, Nagai R. Hematopoietic stem cells differentiate into vascular cells that participate in the pathogenesis of atherosclerosis. Nat Med 2002; 8: 403-409). To put it briefly, a lethal dose of radiation (900 cGy) was applied to wild-type recipient C57BL/6 mice, and bone marrow cells (3×10^6 cells/300 μl) derived from the GFP mouse were transplanted through the tail vein. In order to quantify the reconstitution of mouse bone marrow, mononuclear cells and bone marrow cells in the peripheral blood were analyzed by flow cytometry four weeks after the bone marrow transplant. The percentages of the GFP-positive peripheral blood mononuclear cells and bone marrow cells in the chimeric mice were 87% to 93% and 85% to 90%, respectively, showing that the original stem cell group was replaced by the donor cell group.
Four weeks after the bone marrow transplant, swine pancreatic elastase (200 units/kg; Sigma, St. Louis, Mo.) was injected intratracheally to the chimeric mice. These mice were divided into two groups: the elastase-treated mice to be administered with physiological saline, and those to be administered with AM (each, n=5).
28 days after the injection of elastase (n=5) or saline solution (n=5), frozen sections were prepared from the lungs of the GFP-positive chimeric mice. The number of GFP-positive cells in the alveolar wall was counted and the result was indicated as the number per 100 alveoli. […] The numbers of GFP/cytokeratin double-positive cells and GFP/vWF double-positive cells were counted, and the results were indicated as the number per 100 alveoli. […]

[5] = elastase-treated mice, continuous AM infusion

adrenomedullin [AM]
number of the peripheral blood mononuclear cells ([1]; AM 1 μg/animal, intraperitoneal injection every day for five days, day 5): 120 % of the physiological saline group | number of the peripheral blood mononuclear cells ([1]; AM 5 μg/animal, intraperitoneal injection every day for five days, day 5): 140 % of the physiological saline group | number of the peripheral blood mononuclear cells (dose dependence) ([1]; AM 1, 2 or 5 μg intraperitoneal every day for five days, day 5): increased in a dose-dependent manner | number of the peripheral blood mononuclear cells ([1]; continuous AM, subcutaneous osmotic mini-pump 0.05 μg/kg/min for five days, day 5): 131 % of the physiological saline group | frequency of Sca-1-positive cells ([1]; continuous AM, subcutaneous osmotic mini-pump 0.05 μg/kg/min for five days, day 5, flow cytometry): 200 % of the physiological saline group | regeneration of cardiac muscles by bone marrow-derived cells (GFP- and desmin-expressing cells) [2]: significantly enhance | revascularization by bone marrow cells (GFP- and vWF-expressing cells) [2]: significantly increase | number of vWF-positive lung blood vessels ([3]; elastase-administered lungs, AM vs physiological saline group): significantly increased | histological changes (air space enlargement accompanied by destruction of the alveolar wall) ([3]; elastase-injected mice, continuous AM infusion): decreased | average alveolar diameter (mean linear intercept): increase over the sham treated group [3, 5]: reduced | increase in static lung compliance [3, 5]: significantly reduced | magnitude of the increase in lung volume [3, 5]: reduced | number of GFP-positive cells incorporated in the lung (alveolar wall, per 100 alveoli) [4]: significantly larger | number of GFP/cytokeratin double-positive cells (per 100 alveoli) [4]: significantly larger | number of GFP/vWF double-positive cells in the alveolar wall [4]: larger
